Results on eight compounds are retold here after ChEMBL document CHEMBL4613281, “Missing Selectivity of Targeted 4β-Phorbol Prodrugs Expected to be Potential Chemotherapeutics” (2020).

Each structure is given as a SMILES string. Activity calls are given as the source filed them. No cut-off for these calls is given here. Starred links: 1 amine or outer side, 2 acyl side, 3 side chain; linkers in the order of their positions; H or OH if unused. Non-standard residues stand in square brackets, D forms with d. Residues, ends and D or L forms follow the SMILES beside them. *: point of attachment. X1 = CC(=O)O[C@@]12[C@H](O*)[C@@H](C)[C@@]3(O)[C@@H](C=C(CO)C[C@]4(O)C(=O)C(C)=C[C@@H]34)[C@@H]1C2(C)C; 12Ado = NCCCCCCCCCCCC(=O)O; Morpholide = C1CN(*)CCO1; CO = O=C([*:1])[*:2]

In assay [1] the target is Protein kinase C alpha type (Homo sapiens) (UniProt P17252). The assay can be described thus: Displacement of [3H]PDBu from recombinant human PKCalpha expressed in baculovirus infected Sf9 insect cells incubated for 10 mins by liquid scintillation counting method.
Assay [2] concerns the target T1, Protein kinase C (PKC) (Homo sapiens) (UniProt O94806+P41743+P17252+P05129+Q05655+P05771+Q05513+Q02156+P24723+Q15139+Q04759). The assay can be described thus: Activation of PKC in human 22Rv1 cells assessed as increase in ERK1/ERK2 phosphorylations at 10 nM incubated for 30 mins by Western blot analysis. The format is cell-based. As to conditions: CWR22R.
Assay [3] has as its target T1, Protein kinase C (PKC) (Homo sapiens). The assay can be described thus: Activation of PKC in human DU145 cells assessed as increase in ERK1/ERK2 phosphorylation at 10 nM incubated for 30 mins by Western blot analysis. It is filed as cell-based. As to conditions: DU-145.
In assay [4] the test system is LNCaP. The assay can be described thus: Antiproliferative activity against human LNCAP cells at 1 to 40 uM incubated for 72 hrs by MTT assay. The format is functional, cell-based.
The subject of assay [5] is CWR22R. The experiment in a line: Antiproliferative activity against human 22Rv1 cells at 1 to 40 uM incubated for 72 hrs by MTT assay. The format is functional, cell-based. For orientation: Tetrazolium assays rely on reduction of a dye to a coloured formazan, in cell work by metabolically active cells.
Assay [6] concerns DU-145. The experiment in a line: Antiproliferative activity against human DU145 cells at 1 to 40 uM incubated for 72 hrs by MTT assay. The format is functional, cell-based.
For assay [7], the system named is PC-3. The assay can be described thus: Antiproliferative activity against human PC3 cells at 1 to 40 uM incubated for 72 hrs by MTT assay. It is filed as functional, cell-based.
Assay [8] deals with LNCaP. The assay can be described thus: Cytotoxicity against human LNCAP cells assessed as effect on cell membrane incubated for 72 hrs by LDH assay. It is filed as functional, cell-based.
Assay [9] has as its system CWR22R. The assay can be described thus: Cytotoxicity against human 22Rv1 cells assessed as effect on cell membrane incubated for 72 hrs by LDH assay. It is filed as functional, cell-based.
The test system of assay [10] is DU-145. The assay can be described thus: Cytotoxicity against human DU145 cells assessed as effect on cell membrane incubated for 72 hrs by LDH assay. The format is functional, cell-based.
Assay [11] relates to PC-3. The experiment in a line: Cytotoxicity against human PC3 cells assessed as effect on cell membrane incubated for 72 hrs by LDH assay. The format is functional, cell-based.
For assay [12], the target named is T1, Protein kinase C (PKC) (Homo sapiens). The assay can be described thus: Activation of PKC in human 22Rv1 cells assessed as increase in ERK1/ERK2 phosphorylation at 20 uM incubated for 30 mins by Western blot analysis. It is filed as cell-based. As to conditions: CWR22R. (In general: A western blot detects proteins with antibodies after separation by electrophoresis.)

The target is the same in assay [13]. The assay can be described thus: Activation of PKC in human DU145 cells assessed as increase in ERK1/ERK2 phosphorylation at 20 uM incubated for 30 mins by Western blot analysis. As to conditions: DU-145. The format is cell-based.
For assay [14], the system named is CWR22R. The assay can be described thus: Up regulation of PCKalpha in human 22Rv1 cells at 20 uM incubated for 24 hrs by Western blot analysis. It is filed as functional, cell-based.
For assay [15], the system named is CWR22R. The experiment in a line: Up regulation of PCKalpha in human 22Rv1 cells incubated for 72 hrs by Western blot analysis. It is filed as functional, cell-based.
For assay [16], the system named is CWR22R. The assay can be described thus: Up regulation of PCKdelta in human 22Rv1 cells incubated for 72 hrs by Western blot analysis. It is filed as functional, cell-based.
The subject of assay [17] is CWR22R. The experiment in a line: Up regulation of PSMA in human 22Rv1 cells incubated for 72 hrs by Western blot analysis. It is filed as functional, cell-based.
Assay [18] deals with PC-3. The experiment in a line: Antiproliferative activity against human PC3 cells at 40 uM incubated for 72 hrs by MTT assay relative to control. It is filed as functional.
In assay [19] the test system is LNCaP. The assay can be described thus: Antiproliferative activity against human LNCAP cells at 40 uM incubated for 72 hrs by MTT assay relative to control. It is filed as functional.
Assay [20] has as its system CWR22R. The assay can be described thus: Antiproliferative activity against human 22Rv1 cells at 40 uM incubated for 72 hrs by MTT assay relative to control. It is filed as functional.
Assay [21] has as its system DU-145. The experiment in a line: Antiproliferative activity against human DU145 cells at 40 uM incubated for 72 hrs by MTT assay relative to control. The format is functional.
Assay [22] relates to LNCaP. The experiment in a line: Antiproliferative activity against human LNCAP cells at 20 to 40 uM incubated for 72 hrs by MTT assay relative to control. The format is functional.
The subject of assay [23] is LNCaP. The experiment in a line: Antiproliferative activity against human LNCAP cells incubated for 72 hrs in presence of pan-PKC inhibitor Go6983 by MTT assay. It is filed as functional, cell-based.
Assay [24] relates to LNCaP. The assay can be described thus: Antiproliferative activity against human LNCAP cells incubated for 72 hrs by MTT assay. It is filed as functional, cell-based.
In assay [25] the test system is CWR22R. The experiment in a line: Antiproliferative activity against human 22Rv1 cells incubated for 72 hrs by MTT assay. It is filed as functional, cell-based.
Assay [26] relates to DU-145. The experiment in a line: Antiproliferative activity against human DU145 cells incubated for 72 hrs by MTT assay. It is filed as functional, cell-based.
The subject of assay [27] is PC-3. The assay can be described thus: Antiproliferative activity against human PC3 cells incubated for 72 hrs by MTT assay. The format is functional, cell-based.

For `CCCCCCCCCCCCCC(=O)O[C@@H]1[C@@H](C)[C@@]2(O)[C@@H](C=C(CO)C[C@]3(O)C(=O)C(C)=C[C@@H]23)[C@@H]2C(C)(C)[C@]12OC(C)=O`, the “[3H]PDBu displacement (active/not active)” value in [1] was “Active”. The result in [2] and in [3] was Active.
Take `CC(=O)O[C@@]12[C@H](OC(=O)CCCCCCCCCCCNC(=O)C[C@H](N)C(C)C)[C@@H](C)[C@@]3(O)[C@@H](C=C(CO)C[C@]4(O)C(=O)C(C)=C[C@@H]34)[C@@H]1C2(C)C`: the “[3H]PDBu displacement (active/not active)” value in assay [1] is “Active”. For the same compound, the outcome in the assay with LNCaP [4], with CWR22R [5], with DU-145 [6], with PC-3 [7], with LNCaP [8] and in the assay on CWR22R [9] was inactive. Besides, the outcome with DU-145 [10], with PC-3 [11], in the assay on CWR22R [15], in the assay on CWR22R [16] and in the assay with CWR22R [17] was inactive. Besides, the outcome (in [12]; in [13]; in the assay on CWR22R [14]) was Active.
As for `CC(=O)O[C@@]12[C@H](OC(=O)CCCCCCCCCCCNC(=O)C[C@H](N)C(=O)N[C@@H](CCC(=O)N[C@@H](CCC(=O)N[C@@H](CCC(=O)N[C@@H](CCC(=O)O)C(=O)O)C(=O)O)C(=O)O)C(=O)O)[C@@H](C)[C@@]3(O)[C@@H](C=C(CO)C[C@]4(O)C(=O)C(C)=C[C@@H]34)[C@@H]1C2(C)C`, the “[3H]PDBu displacement (active/not active)” value in assay [1] was “Active”. In the assay on PC-3 [18], this compound gave an Activity of 10%. For the same compound, the outcome (in the assay on LNCaP [8]; in the assay with CWR22R [9]; in the assay with DU-145 [10]; with PC-3 [11]; in assay [12]; with CWR22R [15]) was inactive. The result in the assay on CWR22R [16] and with CWR22R [17] was inactive. The result (in assay [13]; in the assay on CWR22R [14]) was Active.
For the compound `CC(=O)O[C@@]12[C@H](OC(=O)CCCCCCCCCCCNC(=O)[C@@H](N)CC(C)C)[C@@H](C)[C@@]3(O)[C@@H](C=C(CO)C[C@]4(O)C(=O)C(C)=C[C@@H]34)[C@@H]1C2(C)C`, the “[3H]PDBu displacement (active/not active)” value in [1] is “Active”. Besides, the Activity in the assay with LNCaP [19] is 60%; in the assay on CWR22R [20] it was 10%; in the assay with DU-145 [21], 40%; in the assay with PC-3 [18], 30%. For the same compound, the outcome with LNCaP [8], in the assay on CWR22R [9], in the assay with DU-145 [10], in the assay on PC-3 [11], with CWR22R [14] and in the assay on CWR22R [15] was inactive. Moreover, the result in the assay on CWR22R [16] and in the assay with CWR22R [17] was inactive. Besides, the outcome in [12] and in [13] was Active.
Take `CC(=O)O[C@@]12[C@H](OC(=O)CCCCCCCCCCCNC(=O)[C@H](CC(C)C)NC(=O)[C@H](CCC(N)=O)NC(=O)[C@H](CC(C)C)NC(=O)[C@H](CCCCN)NC(=O)[C@H](CO)NC(=O)[C@H](CO)NC(=O)[C@H](Cc3cnc[nH]3)NC(=O)N3CCOCC3)[C@@H](C)[C@@]3(O)[C@@H](C=C(CO)C[C@]4(O)C(=O)C(C)=C[C@@H]34)[C@@H]1C2(C)C` ({Morpholide-CO}-HSSKLQL[12Ado]-X1): the “[3H]PDBu displacement (active/not active)” value in assay [1] is “inactive”. The compound further had an Activity in the assay on LNCaP [22] of 32%. Moreover, the outcome in the assay on LNCaP [23], with LNCaP [8], in the assay with CWR22R [9], in the assay on DU-145 [10] and in the assay with PC-3 [11] was inactive. Moreover, the outcome in assay [12] and in assay [13] was Active.
For `C/C=C(/C)C(=O)O[C@H]1C(C)=C2[C@H]([C@@H]1OC(=O)CCCCCCC)[C@@](C)(OC(C)=O)C[C@H](OC(=O)CCCCCCCCCCCNC(=O)C[C@H](N)C(=O)N[C@@H](CCC(=O)N[C@@H](CCC(=O)N[C@@H](CCC(=O)N[C@@H](CCC(=O)O)C(=O)O)C(=O)O)C(=O)O)C(=O)O)[C@@]1(O)[C@H]2OC(=O)[C@@]1(C)O` [MIPSAGARGIN], the Activity in the assay on LNCaP [19] was determined as 35%; with CWR22R [20] it was 40%; in the assay with PC-3 [18] it was 32%.
For `CC(=O)NCC(=O)N[C@@H](CCCCN)C(=O)N[C@@H](C)C(=O)N[C@@H](Cc1ccccc1)C(=O)N[C@@H](CCCNC(=N)N)C(=O)N[C@@H](CCCNC(=N)N)C(=O)N[C@@H](CC(C)C)C(=O)NCCCCCCCCCCCC(=O)O[C@@H]1[C@@H](C)[C@@]2(O)[C@@H](C=C(CO)C[C@]3(O)C(=O)C(C)=C[C@@H]23)[C@@H]2C(C)(C)[C@]12OC(C)=O` (Ac-GKAFRRL[12Ado]-X1), in [1], the “[3H]PDBu displacement (active/not active)” value was “Active”. The Activity was determined as 25% in the assay with CWR22R [20] and 15% in the assay with PC-3 [18]. Moreover, the outcome with LNCaP [8], with CWR22R [9], in the assay on DU-145 [10], with PC-3 [11], in the assay with CWR22R [14] and in the assay with CWR22R [15] was inactive. Further, the result in the assay with CWR22R [16] and in the assay with CWR22R [17] was inactive. Also, the result in assay [12] and in [13] was Active.
Take `C/C=C(/C)C(=O)O[C@H]1C(C)=C2[C@H]([C@@H]1OC(=O)CCCCCCC)[C@@](C)(OC(C)=O)C[C@H](OC(=O)CCCCCCCCCCCNC(=O)C[C@H](N)C(N)=O)[C@@]1(O)[C@H]2OC(=O)[C@@]1(C)O`: the Activity in the assay with LNCaP [19] was 4%; with CWR22R [20] it was 27%; with DU-145 [21] it was 20%; with PC-3 [18], 15%; with LNCaP [24], “Dose-dependent effect”; with CWR22R [25] it was “Dose-dependent effect”. In addition, the Activity entry in the assay with DU-145 [26] and with PC-3 [27] was “Dose-dependent effect” each time.
